Consider two substances from patent US8349583B2, “Distinguishing cells in a sample by inactivating extracellular enzyme before releasing intracellular enzyme” (priority 2005, dated 2013).

Holding throughout (format): biochemical
A short description of experiment [1]: AK activity after transient pH drop or acidic incubation at pH 4. To be noted: for AK activity relative to control: listed as AK alone. The protocol:
(§1) Experimental work used adenylate kinase-generated ATP to drive a luciferin/luciferase activity, giving results in RLUs as a quantitative measure of initial ATP levels. All AK assays were performed at pH 7.5, and 37° C. Results of the assay were read at ambient temperature.
In further experiments, three treatment conditions were tested: (i) a control, run at pH 7.5 with no pH change; (ii) a transient pH drop before the assay, where pH was reduced to pH 4 and then returned to pH 7.5; and (iii) an acidic incubation, where pH was reduced to pH 4 for 15 minutes. AK activity was then assessed. In parallel tests, the effect of these pH conditions on the viability of E. coli and E. faecalis was assessed.

A short description of experiment [2]: Effect of incubation pH on purified AK activity (luciferin/luciferase). The protocol:
as §1
To assess the effect of pH on AK activity, purified enzyme was incubated for 1 hour at various pH, with pH 7.5 being the control (normal assay conditions). AK activity was measured by using the bioluminescent luciferin/luciferase to detect AK-generated ATP.

Experiment [3] concerns bacterial adenylate kinase. Description: AK reduction by different proteases over time for different organisms. To be noted: 37° C., 10 to 120 minutes; trypsin 1000, papain 10, proteinase K 2.5, chymotrypsin 1 U/ml. The protocol: • 1. Bacteria were scraped from plates and inoculated in approximately 20 ml of broth only. These were incubated overnight at 37° C. • 2. 10× stocks of the enzymes were prepared in broth only: • a. 10 mg of 16,000 U/mg Trypsin added to 16 ml of broth to give 10,000 U/ml (10×) stock. • b. 25 mg of 4 U/mg Papain added to 1 ml of broth to give 100 U/ml (10×) stock. • c. 10 mg of 7.5 U/mg proteinase K added to 3 ml of broth to give a 25 U/ml (10×) stock. • d. 10.5 ul of 239 U/ml chymotrypsin added to 239.5 ul of broth to give a 10 U/ml stock. • 3. The inoculums were then centrifuged at approximately 14030 RCF for one hour. • 4. The supernatant was then taken, tested for adenylate kinase activity (described below), and diluted with broth only if needed to give about 10^5 cpm/ml. • 5. The supernatant was then assayed for adenylate kinase activity at time point zero in triplicate and averaged. • 6. 1.5 ml solutions of the supernatants were prepared with the correct concentration of enzyme, or broth for control. These were incubated at 37° C. • 7. Samples were then taken and assayed in triplicate for adenylate kinase activity at 10, 30, 60 and 120 minutes. • 8. The triplicates were averaged, and normalised by dividing by the time point zero average. Adenylate Kinase Assay (AK Only No Cells) • 1. […] added to a cuvette. • 2. […] RLU read immediately. […]

Several values for one entry are separate records, joined by “and”; a condition that tells them apart may be missing. Identical values can stand only once. Marks after values point to notes of the source that are not given here.

On to adenylate kinase [AK], for which the “AK activity relative to control” value in experiment [1] (acidic incubation: pH 4 for 15 minutes) was 13% and 8%; in experiment [1] (transient pH drop: reduced to pH 4 and returned to pH 7.5) it was 91% and 89%. Further, in experiment [1] (incubation at pH 4), the “reduction in AK activity” value is on record as roughly 10 fold. Besides, the “AK activity, RLU” value in experiment [2] (incubated 1 hour at pH 3) is listed as 15.7 RLU (10^3); in experiment [2] (incubated 1 hour at pH 4), 11.1 RLU (10^3); in experiment [2] (incubated 1 hour at pH 5), 299.0 RLU (10^3); in experiment [2] (incubated 1 hour at pH 6), 333.5 RLU (10^3); in experiment [2] (incubated 1 hour at pH 7.5 (control, normal assay conditions)), 288.2 RLU (10^3); in experiment [2] (incubated 1 hour at pH 9), 262.4 RLU (10^3). In addition, the “AK activity, RLU” value in experiment [2] (incubated 1 hour at pH 10) is 214.5 RLU (10^3); in experiment [2] (incubated 1 hour at pH 11), 201.2 RLU (10^3); in experiment [2] (incubated 1 hour at pH 12) it was 88.6 RLU (10^3).
In the case of chymotrypsin, the “degradation of AK extracted from different organisms” value in experiment [3] is reported as “degraded the AK in a similar manner to trypsin”.
